Experimental data taken from EP2999467B1, “USE OF A COMBINATION OF TWO COMPOUNDS FOR THE TREATMENT AND/OR PREVENTION OF BONE DISORDERS” (Institut National de la Recherche Agronomique (INRA), priority 2013, dated 2014).

System: perte osseuse induite par ovariectomie
Test: Ovariectomy-induced bone loss: trabecular bone mineral density of femur (CT)
Assay type: in vivo, souris C57BL/6J
Details: OVX mice, Fisétine 25mg/kg daily by gavage; OVX without fisetin -15%
Procedure: Tout au long de l'étude, les animaux ont été logés dans un environnement contrôlé (12:12 h cycle lumière-obscurité, 20-22 ° C, 50-60% d'humidité relative, 1 souris par cage en plastique avec un accès libre à l'eau. Les souris C57BL/6J ont été livrées 2 semaines avant l'étude pour l'acclimatation à notre environnement sous régime standard semi-purifié. Pour toutes les expériences, les souris de 8 semaines (n=12/groupe) ont été gavées avec le véhicule (1% d'éthanol, 0,2% hydroxypropylcellulose dans de l'eau distillée) ou avec la fisétine (5 à 50 mg/kg dans le véhicule) pendant une semaine. Ensuite, pour l'expérience OVX, les souris ont été pseudo-opérées ou ovariectomisées bilatéralement et ont reçu quotidiennement par gavage le véhicule ou la fisétine pendant 4 semaines. A la fin de l'expérimentation, le sérum, les cornes utérines, les tibias et les fémurs ont été recueillis pour analyse. Pour l'expérience de perte osseuse induite par LPS, le véhicule (PBS) ou le LPS (sérotype 026: B6, 25mg/kg) ont été injectés par voie sous-cutanée au niveau de la calotte crânienne, une fois par semaine pendant 3 semaines sous anesthésie. Durant ces 3 semaines, les souris ont reçu soit le véhicule (1% d'éthanol, 0,2% hydroxypropylcellulose dans de l'eau distillée) soit la fisétine quotidiennement par gavage. […]

O=c1c(O)c(-c2ccc(O)c(O)c2)oc2cc(O)ccc12 [Fisétine, 3,3',4',7-tétrahydroxyflavone]
densité minérale osseuse (DMO trabéculaire) par rapport à la condition témoin « SH »: -4%
